Source: PubChem BioAssay AID1918937 (Molecular Pharmacology Branch, DTP, NCI, 2023)
“And” between values parts separate entries of the source, which are not always exact repeats. Equal values may be shown once.

Test system: 521955-158-R2-J5-PDC complex spheroid viability
Assay: Anticancer human tumor 521955-158-R2-J5-PDC patient-derived pancreatic carcinoma cell line growth inhibition
Details: for viability, T/C: stronger effect = lower value
How it was run: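 Complex spheroids of tumor cells with HUVEC and human MSCs, exposed to iadademstat combined with other agents. Each agent tested in half-log steps from near clinical Cmax (else 10 microM top), DMSO ≤0.25%.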

[1] = curve of first compound, second compound 0.1 µM
[2] = curve of first compound, second compound 0.316 µM
[3] = curve of first compound, second compound 1 µM
[4] = curve of first compound, second compound 3.16 µM
[5] = curve of first compound, second compound 10 µM
[6] = second compound 0.1 µM, first compound 0.0316 µM
[7] = second compound 0.1 µM, first compound 0.1 µM
[8] = second compound 0.1 µM, first compound 0.316 µM
[9] = second compound 0.1 µM, first compound 1 µM
[10] = second compound 0.1 µM, first compound 3.16 µM
[11] = second compound 0.1 µM, first compound 10 µM
[12] = second compound 0.316 µM, first compound 0.0316 µM
[13] = second compound 0.316 µM, first compound 0.1 µM
[14] = second compound 0.316 µM, first compound 0.316 µM
[15] = second compound 0.316 µM, first compound 1 µM
[16] = second compound 0.316 µM, first compound 3.16 µM
[17] = second compound 0.316 µM, first compound 10 µM
[18] = second compound 1 µM, first compound 0.0316 µM
[19] = second compound 1 µM, first compound 0.1 µM
[20] = second compound 1 µM, first compound 0.316 µM
[21] = second compound 1 µM, first compound 1 µM
[22] = second compound 1 µM, first compound 3.16 µM
[23] = second compound 1 µM, first compound 10 µM
[24] = second compound 3.16 µM, first compound 0.0316 µM
[25] = second compound 3.16 µM, first compound 0.1 µM
[26] = second compound 3.16 µM, first compound 0.316 µM
[27] = second compound 3.16 µM, first compound 1 µM
[28] = second compound 3.16 µM, first compound 3.16 µM
[29] = second compound 3.16 µM, first compound 10 µM
[30] = second compound 10 µM, first compound 0.0316 µM
[31] = second compound 10 µM, first compound 0.1 µM
[32] = second compound 10 µM, first compound 0.316 µM
[33] = second compound 10 µM, first compound 1 µM
[34] = second compound 10 µM, first compound 3.16 µM
[35] = second compound 10 µM, first compound 10 µM
[36] = second compound 0.1 µM, first compound 0.00949 µM
[37] = second compound 0.1 µM, first compound 0.03 µM
[38] = second compound 0.1 µM, first compound 0.0949 µM
[39] = second compound 0.1 µM, first compound 0.3 µM
[40] = second compound 0.316 µM, first compound 0.00949 µM
[41] = second compound 0.316 µM, first compound 0.03 µM
[42] = second compound 0.316 µM, first compound 0.0949 µM
[43] = second compound 0.316 µM, first compound 0.3 µM
[44] = second compound 1 µM, first compound 0.00949 µM
[45] = second compound 1 µM, first compound 0.03 µM
[46] = second compound 1 µM, first compound 0.0949 µM
[47] = second compound 1 µM, first compound 0.3 µM
[48] = second compound 3.16 µM, first compound 0.00949 µM
[49] = second compound 3.16 µM, first compound 0.03 µM
[50] = second compound 3.16 µM, first compound 0.0949 µM
[51] = second compound 3.16 µM, first compound 0.3 µM
[52] = second compound 10 µM, first compound 0.00949 µM
[53] = second compound 10 µM, first compound 0.03 µM
[54] = second compound 10 µM, first compound 0.0949 µM
[55] = second compound 10 µM, first compound 0.3 µM
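Further: spheroids exposed to agents for seven days.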
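Wherever viability, T/C is given: percent of DMSO vehicle control luminescence viability.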

## COc1ccc([C@@H](O)c2cc(-c3ncnc4cc(N5CCOCC5)ccc34)c(F)cc2Cl)nn1 + NC1CCC(NC2CC2c2ccccc2)CC1
[1]
  IC50: 838 nM
[2]
  IC50: 973 nM
[3]
  IC50: 640 nM
[4]
  IC50: 795 nM
[5]
  IC50: 742 nM
[6]
  viability, T/C: 81.5%
[7]
  viability, T/C: 80.9%
[8]
  viability, T/C: 66.5%
[9]
  viability, T/C: 42.9%
[10]
  viability, T/C: 38.6%
[11]
  viability, T/C: 22.7%
[12]
  viability, T/C: 74.4%
[13]
  viability, T/C: 72.3%
[14]
  viability, T/C: 65.3%
[15]
  viability, T/C: 45%
[16]
  viability, T/C: 38.8%
[17]
  viability, T/C: 22.4%
[18]
  viability, T/C: 77.4%
[19]
  viability, T/C: 81.8%
[20]
  viability, T/C: 57.8%
[21]
  viability, T/C: 42.6%
[22]
  viability, T/C: 30.9%
[23]
  viability, T/C: 19.7%
[24]
  viability, T/C: 80.7%
[25]
  viability, T/C: 80.7%
[26]
  viability, T/C: 65%
[27]
  viability, T/C: 45.8%
[28]
  viability, T/C: 29.1%
[29]
  viability, T/C: 19.3%
[30]
  viability, T/C: 80%
[31]
  viability, T/C: 79.5%
[32]
  viability, T/C: 64.5%
[33]
  viability, T/C: 42.2%
[34]
  viability, T/C: 30.5%
[35]
  viability, T/C: 15.4%

## CC(C)c1c(-c2ccccc2)nc2c(C#N)c[nH]n2c1=O + NC1CC1c1ccc(-c2cccc(O)c2)cc1
[1]
  IC50: > 10000 nM
[2]
  IC50: > 10000 nM
[3]
  IC50: > 10000 nM
[4]
  IC50: > 10000 nM
[5]
  IC50: 3300 nM
[6]
  viability, T/C: 48.6%
[7]
  viability, T/C: 55.6%
[8]
  viability, T/C: 62.2%
[9]
  viability, T/C: 46.3%
[10]
  viability, T/C: 54.8%
[11]
  viability, T/C: 56.8%
[12]
  viability, T/C: 54.5%
[13]
  viability, T/C: 55.9%
[14]
  viability, T/C: 60.8%
[15]
  viability, T/C: 56.3%
[16]
  viability, T/C: 54.5%
[17]
  viability, T/C: 46.8%
[18]
  viability, T/C: 65.5%
[19]
  viability, T/C: 70.8%
[20]
  viability, T/C: 72.2%
[21]
  viability, T/C: 58.8%
[22]
  viability, T/C: 60.6%
[23]
  viability, T/C: 49.5%
[24]
  viability, T/C: 57.6%
[25]
  viability, T/C: 67.2%
[26]
  viability, T/C: 71.3%
[27]
  viability, T/C: 69.8%
[28]
  viability, T/C: 58.3%
[29]
  viability, T/C: 39.7%
[30]
  viability, T/C: 62.9%
[31]
  viability, T/C: 72.7%
[32]
  viability, T/C: 70.2%
[33]
  viability, T/C: 61.8%
[34]
  viability, T/C: 50.9%
[35]
  viability, T/C: 41.3%

## NS(=O)(=O)OCC1CC(n2ccc3c(NC4CCc5ccccc54)ncnc32)CC1O (configuration not stated) + NC1CCC(NC2CC2c2ccccc2)CC1
[1]
  IC50: 28.1 nM
[2]
  IC50: 31.8 nM
[3]
  IC50: 26.3 nM
[4]
  IC50: 25.8 nM
[5]
  IC50: 25.4 nM
[36]
  viability, T/C: 77.7%
[37]
  viability, T/C: 49%
[38]
  viability, T/C: 26.5%
[39]
  viability, T/C: 16.8%
Second compound 0.1 µM, first compound 0.949 µM
  viability, T/C: 13.8%
Second compound 0.1 µM, first compound 3 µM
  viability, T/C: 7.17%
[40]
  viability, T/C: 69.6%
[41]
  viability, T/C: 51.4%
[42]
  viability, T/C: 28.9%
[43]
  viability, T/C: 15.1%
Second compound 0.316 µM, first compound 0.949 µM
  viability, T/C: 10.3%
Second compound 0.316 µM, first compound 3 µM
  viability, T/C: 6.4%
[44]
  viability, T/C: 71.8%
[45]
  viability, T/C: 47.3%
[46]
  viability, T/C: 25.5%
[47]
  viability, T/C: 13.7%
Second compound 1 µM, first compound 0.949 µM
  viability, T/C: 11.1%
Second compound 1 µM, first compound 3 µM
  viability, T/C: 7.37%
[48]
  viability, T/C: 70.7%
[49]
  viability, T/C: 47.5%
[50]
  viability, T/C: 24.4%
[51]
  viability, T/C: 15.6%
Second compound 3.16 µM, first compound 0.949 µM
  viability, T/C: 12.2%
Second compound 3.16 µM, first compound 3 µM
  viability, T/C: 7.55%
[52]
  viability, T/C: 74.9%
[53]
  viability, T/C: 46.5%
[54]
  viability, T/C: 23.6%
[55]
  viability, T/C: 15.3%
Second compound 10 µM, first compound 0.949 µM
  viability, T/C: 9.78%
Second compound 10 µM, first compound 3 µM
  viability, T/C: 5.36%

## COc1cc(Nc2ncc3c(n2)-c2ccc(Cl)cc2C(c2c(F)cccc2OC)=NC3)ccc1C(=O)O + NC1CC1c1ccc(-c2cccc(O)c2)cc1
[1]
  IC50: > 1000 nM
[2]
  IC50: > 1000 nM
[3]
  IC50: > 1000 nM
[4]
  IC50: > 1000 nM
[5]
  IC50: > 1000 nM
Second compound 0.1 µM, first compound 0.00316 µM
  viability, T/C: 67.5%
Second compound 0.1 µM, first compound 0.01 µM
  viability, T/C: 73.7%
[6]
  viability, T/C: 69.4%
[7]
  viability, T/C: 67.2%
[8]
  viability, T/C: 66.2%
[9]
  viability, T/C: 61.2%
Second compound 0.316 µM, first compound 0.00316 µM
  viability, T/C: 65.9%
Second compound 0.316 µM, first compound 0.01 µM
  viability, T/C: 78.9%
[12]
  viability, T/C: 62.1%
[13]
  viability, T/C: 72.1%
[14]
  viability, T/C: 81.7%
[15]
  viability, T/C: 59.3%
Second compound 1 µM, first compound 0.00316 µM
  viability, T/C: 75.1%
Second compound 1 µM, first compound 0.01 µM
  viability, T/C: 71.4%
[18]
  viability, T/C: 65.6%
[19]
  viability, T/C: 82.5%
[20]
  viability, T/C: 70.8%
[21]
  viability, T/C: 71.7%
Second compound 3.16 µM, first compound 0.00316 µM
  viability, T/C: 66.4%
Second compound 3.16 µM, first compound 0.01 µM
  viability, T/C: 72%
[24]
  viability, T/C: 81.8%
[25]
  viability, T/C: 72.2%
[26]
  viability, T/C: 75.4%
[27]
  viability, T/C: 66%
Second compound 10 µM, first compound 0.00316 µM
  viability, T/C: 69.5%
Second compound 10 µM, first compound 0.01 µM
  viability, T/C: 69.5%
[30]
  viability, T/C: 67.6%
[31]
  viability, T/C: 63.1%
[32]
  viability, T/C: 57.5%
[33]
  viability, T/C: 71.6%

## CCc1c2c(nc3ccc(O)cc13)-c1cc3c(c(=O)n1C2)COC(=O)[C@]3(O)CC + NC1CC1c1ccc(-c2cccc(O)c2)cc1
[1]
  IC50: < 0.949 nM
[2]
  IC50: < 0.949 nM
[3]
  IC50: < 0.949 nM
[4]
  IC50: < 0.949 nM
[5]
  IC50: < 0.949 nM
Second compound 0.1 µM, first compound 0.000949 µM
  viability, T/C: 10.3%
Second compound 0.1 µM, first compound 0.003 µM
  viability, T/C: 8.53%
[36]
  viability, T/C: 1.37%
[37]
  viability, T/C: 0.77%
[38]
  viability, T/C: 0.88%
[39]
  viability, T/C: 1.18%
Second compound 0.316 µM, first compound 0.000949 µM
  viability, T/C: 14%
Second compound 0.316 µM, first compound 0.003 µM
  viability, T/C: 8.17%
[40]
  viability, T/C: 1.18%
[41]
  viability, T/C: 0.73%
[42]
  viability, T/C: 0.87%
[43]
  viability, T/C: 1.5%
Second compound 1 µM, first compound 0.000949 µM
  viability, T/C: 11.7%
Second compound 1 µM, first compound 0.003 µM
  viability, T/C: 9.8%
[44]
  viability, T/C: 1.34%
[45]
  viability, T/C: 1.1%
[46]
  viability, T/C: 0.66%
[47]
  viability, T/C: 1.78%
Second compound 3.16 µM, first compound 0.000949 µM
  viability, T/C: 13.4%
Second compound 3.16 µM, first compound 0.003 µM
  viability, T/C: 8.84%
[48]
  viability, T/C: 1.07%
[49]
  viability, T/C: 0.72%
[50]
  viability, T/C: 0.84%
[51]
  viability, T/C: 2.14%
Second compound 10 µM, first compound 0.000949 µM
  viability, T/C: 17.5%
Second compound 10 µM, first compound 0.003 µM
  viability, T/C: 13%
[52]
  viability, T/C: 1.18%
[53]
  viability, T/C: 0.43%
[54]
  viability, T/C: 0.52%
[55]
  viability, T/C: 0.74%

## Cn1ncnc1C1c2n[nH]c(=O)c3cc(F)cc(c23)NC1c1ccc(F)cc1 (configuration not stated)
Compound 0.000316 µM
  viability, T/C: 102% and 101%
Compound 0.001 µM
  viability, T/C: 97.6% and 112%
Compound 0.00316 µM
  viability, T/C: 95.6% and 91.6%
Compound 0.01 µM
  viability, T/C: 96.3% and 103%
Compound 0.0316 µM
  viability, T/C: 91.7% and 89.2%
Compound 0.1 µM
  viability, T/C: 86.4% and 98%
Curve of compound
  IC50: > 100 nM
